Experiments:
[1] = system: 786-O-Hif-Luc cells; test: Luciferase Assay (HIF responsive elements reporter); conditions: read-out: Mean Luciferase EC50 (nM), 786-O-Hif-Luc cells
Method: A pool of infected cells were then selected against 2 μg/mL of puromycin (P8833, Sigma) for 10 days followed by limited dilution to select single clones. […] Each concentration was tested in triplicate. After about 24 hours, luciferase activity was determined using ONE-Glo Luciferase Assay Reagent (E6110, Promega) following the manufacturer's recommended procedure. EC50 were calculated using Dotmatics software.

[2] = target: T1, HIF-2α HIS TAG-PASB Domain (Homo sapiens, UniProt Q99814); test: HIF-2α Scintillation Proximity Assay (SPA); format: binding; conditions: read-out: Scintillation Proximity Assay IC50
T1 construct: 100 nM HIF-2α HIS TAG-PASB Domain
How it was run: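 IC50 values rest on percent inhibition, where the sample signal is scaled between high and low controls. Wells contain about 100 μL: compound dispensed as 2 μL of DMSO solution, 88 μL protein-probe mix and 10 μL of beads.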

T1 sequence (Q99814 240-350 limits assumed): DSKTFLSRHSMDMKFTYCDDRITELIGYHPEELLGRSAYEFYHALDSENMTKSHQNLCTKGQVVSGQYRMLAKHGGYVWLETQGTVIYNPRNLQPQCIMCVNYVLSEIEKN

Row | SMILES | EC50 [1] | IC50 [2]
1 | CC1(COc2ccc(S(=O)(=O)C(F)(F)F)c3c2CC(F)(F)C3O)COC1 (stereo not drawn) [Compound 622] | 250 to 1000 nM | 250 to 1000 nM
2 | CS(=O)(=O)c1ccc(Oc2cc(F)cc(C#N)c2)c(C(F)F)c1C#N [Compound 94] | 250 to 1000 nM | 50 to 249 nM
3 | O=S(=O)(c1ccc(O[C@H]2C[C@H](O)C2)c2c1C(O)C(F)(F)C2)C(F)(F)F (stereo partly drawn) [Compound 644] | 250 to 1000 nM | 250 to 1000 nM
4 | N#Cc1cc(F)cc(Oc2ccc(S(=O)(=O)C(F)(F)F)cc2C#N)c1 [Compound 120] | > 1000 nM | 250 to 1000 nM
5 | Cc1c(Oc2cc(F)cc(Cl)c2)ccc(S(=O)(=O)C(F)(F)F)c1Br [Compound 140] | > 1000 nM | < 50 nM
6 | Cc1c(Oc2cc(F)cc(C#N)c2)ccc(S(=O)(=O)C(F)(F)F)c1C=O [Compound 145] | 250 to 1000 nM | 50 to 249 nM
7 | CS(=O)(=O)c1ccc(Sc2cccc(C#N)c2)c2c1[C@H](O)C(F)(F)[C@@H]2F [Compound 492, 3-(((1S,3R)-2,2,3-trifluoro-1-hydroxy-(methylsulfonyl)-2,3-dihydro-1H-inden-4-yl)thio)benzonitrile] | > 1000 nM | > 1000 nM
8 | CS(=O)(=O)c1ccc(O[C@H]2C[C@](F)(C#N)C2)c2c1[C@H](O)C(F)(F)[C@@H]2F [Compound 741] | > 1000 nM | < 50 nM
9 | N#Cc1c(Oc2cc(F)cc(F)c2)ccc2c1[C@@H](O)CS2(=O)=O [Compound 414] | 250 to 1000 nM | 50 to 249 nM
10 | CS(=N)(=O)c1ccc(Oc2cc(F)cc(F)c2)c2c1C(O)CC2 (stereo not drawn) [Compound 190] | > 1000 nM | 250 to 1000 nM
11 | N#CC1(COc2ccc(S(=O)(=O)C(F)(F)F)c3c2C[C@@H](F)[C@H]3O)CC1 [Compound 661] | < 50 nM | < 50 nM
12 | CC(C)(O)COc1ccc(S(=O)(=O)C(F)(F)F)c2c1CC(F)(F)[C@H]2O [Compound 750] | 250 to 1000 nM | 250 to 1000 nM
13 | CS(=O)(=O)c1ccc(Oc2cc(F)cc(C#N)c2)c(C#N)c1Cl [Compound 152] | > 1000 nM | 250 to 1000 nM
14 | Cc1c(S(=O)(=O)C(F)F)ccc(Oc2cc(F)cc(Cl)c2)c1C#N [Compound 32] | > 1000 nM | < 50 nM
15 | CS(=O)(=O)c1ccc(OCC2CC(F)(F)C2)c2c1[C@H](O)C(F)(F)[C@@H]2F [Compound 759] | 250 to 1000 nM | 50 to 249 nM
16 | CS(=O)(=O)c1ccc(O[C@H]2C[C@H](F)C2)c2c1[C@H](O)C(F)(F)[C@H]2F [Compound 737] | > 1000 nM | 50 to 249 nM
17 | O=S(=O)(c1ccc(OCCCO)c2c1C(O)C(F)(F)C2)C(F)(F)F (stereo not drawn) [Compound 612] | > 1000 nM | 250 to 1000 nM
18 | CCC(COC)Oc1ccc(S(=O)(=O)C(F)(F)F)c2c1CC(F)(F)C2O (stereo not drawn) [Compound 747] | 250 to 1000 nM | 50 to 249 nM
19 | CC1(C)CC[C@@H](O)[C@@H](c2ccc(S(=O)(=O)C(F)(F)F)c3c2CC(F)(F)[C@H]3O)C1 [Compound 545] | > 1000 nM | 50 to 249 nM
20 | NC(=O)C1CCc2c(OCC(F)F)ccc(C(F)(F)F)c21 (stereo not drawn) [Compound 692] | > 1000 nM | > 1000 nM
21 | O=S1(=O)c2ccc(OCC3CC3)c(C(F)F)c2[C@@H](O)C1(F)F [Compound 439] | > 1000 nM | > 1000 nM
22 | CS(=O)(=O)c1ccc(Oc2cccc(C#N)c2)c2c1[C@H](O)C(F)(F)C2 [Compound 162] | 50 to 249 nM | 50 to 249 nM
23 | O/N=C1/c2c(C(F)(F)F)ccc(OC3CC(F)(F)C3)c2CC1(F)F [Compound 672] | > 1000 nM | 50 to 249 nM
24 | CCOc1ccc(S(=O)(=O)C(F)F)c2c1CC(F)(F)[C@H]2O [Compound 678] | 250 to 1000 nM | 250 to 1000 nM
25 | CS(=O)(=O)c1ccc(OC[C@@H]2C[C@@H]2C#N)c2c1[C@H](O)C(F)(F)[C@@H]2F [Compound 764] | > 1000 nM | > 1000 nM
26 | O=S(=O)(CF)c1ccc(Oc2cc(F)cc(Cl)c2)c2c1[C@H](O)C(F)(F)C2 [Compound 65] | < 50 nM | < 50 nM
27 | C[C@@]1(F)Cc2c(Oc3cc(F)cc(C#N)c3)ccc(S(C)(=O)=O)c2[C@@H]1O [Compound 300] | > 1000 nM | > 1000 nM

Row | SMILES | EC50 [1] | IC50 [2]
28 | CS(=O)(=O)N[C@H]1C[C@@H](Oc2ccc(S(=O)(=O)C(F)(F)F)c3c2CC(F)(F)[C@H]3O)C1 [Compound 726] | > 1000 nM | > 1000 nM
29 | O=S(=O)(c1ccc(Oc2ccc(F)c(F)c2)c2c1C(O)CC2)C(F)(F)F (stereo not drawn) [Compound 214] | > 1000 nM | 50 to 249 nM
30 | N#Cc1cc(Oc2ccc3c(c2C(F)F)[C@@H](O)C(F)(F)S3(=O)=O)ccc1F [Compound 437] | 250 to 1000 nM | 50 to 249 nM
31 | O=S(=O)(CF)c1ccc(Oc2cncc(Cl)c2)c2c1[C@H](O)C(F)(F)C2 [Compound 187] | 50 to 249 nM | 50 to 249 nM
32 | COC(=O)/C=C/c1c(S(=O)(=O)C(F)(F)F)ccc(Oc2cc(F)cc(C#N)c2)c1C [Compound 147] | > 1000 nM | 50 to 249 nM
33 | N#C[C@H]1C[C@@H](Oc2ccc(S(=O)(=O)C(F)(F)F)c3c2CC(F)(F)[C@H]3O)C1 [Compound 787] | < 50 nM | < 50 nM
34 | Cc1cncc(Oc2ccc(S(C)(=O)=O)c3c2CC(F)(F)[C@H]3O)n1 [Compound 201] | > 1000 nM | < 50 nM
35 | CS(=O)(=O)c1ccc(Oc2cncc(Cl)c2)c2c1[C@H](O)C(F)(F)C2 [Compound 115] | 250 to 1000 nM | 250 to 1000 nM
36 | O=S(=O)(c1ccc(Oc2cc(F)cc(Cl)c2)c(Cl)c1CCl)C(F)F [Compound 46] | > 1000 nM | 250 to 1000 nM
37 | O=S(=O)(c1ccc(O[C@@H]2CCCOC2)c2c1[C@H](O)C(F)(F)C2)C(F)(F)F [Compound 730] | 50 to 249 nM | 50 to 249 nM
38 | O=S(=O)(c1ccc(Cn2cncn2)c2c1[C@H](O)C(F)(F)C2)C(F)(F)F [Compound 534] | > 1000 nM | > 1000 nM
39 | O=S(=O)(c1ccc(Oc2ccc(F)c(Cl)c2)c2c1[C@H](O)CC2)C(F)F [Compound 157] | > 1000 nM | 250 to 1000 nM
40 | O=S(=O)(c1ccc(OC2CCOC2)c2c1C(O)C(F)(F)C2)C(F)(F)F (stereo not drawn) [Compound 604] | 50 to 249 nM | 50 to 249 nM
41 | O=C1c2c(S(=O)(=O)C(F)F)ccc(Oc3ccc(F)c(F)c3)c2CC1(F)F [Compound 195] | > 1000 nM | 50 to 249 nM
42 | CC1(C)C[C@@H](O)C[C@@H](c2ccc(S(=O)(=O)C(F)(F)F)c3c2CC(F)(F)[C@H]3O)C1 [Compound 550] | 250 to 1000 nM | < 50 nM
43 | N#Cc1c(S(=O)(=O)C(F)F)ccc(Oc2cc(F)cc(Cl)c2)c1Cl [Compound 38] | 250 to 1000 nM | 50 to 249 nM
44 | CS(=O)(=O)c1ccc(OCC(F)F)c2c1[C@H](O)C(F)(F)[C@@H]2F [Compound 755] | > 1000 nM | 50 to 249 nM
45 | CCCc1ccc(S(=O)(=O)C(F)(F)F)c2c1CC(F)(F)C2O (stereo not drawn) [Compound 517] | 250 to 1000 nM | 50 to 249 nM
46 | Cc1c(S(=O)(=O)C(F)F)ccc(Oc2cc(F)cc(C#N)c2)c1C#N [Compound 33] | > 1000 nM | 50 to 249 nM
47 | NC(=O)Cc1ccc(S(=O)(=O)C(F)(F)F)c2c1CCC2O (stereo not drawn) [Compound 523, 2-[1-hydroxy-7-(trifluoromethylsulfonyl)indan-4-yl]acetamide] | 50 to 249 nM | 250 to 1000 nM
48 | N#Cc1cncc(-c2ccc(S(=O)(=O)C(F)(F)F)c3c2CC(F)(F)[C@H]3O)c1 [Compound 570] | > 1000 nM | > 1000 nM
49 | CS(=O)(=O)NCCOc1ccc(S(=O)(=O)C(F)(F)F)c2c1CC(F)(F)C2O (stereo not drawn) [Compound 637] | > 1000 nM | 250 to 1000 nM
50 | CC(C)(C#N)COc1ccc(S(=O)(=O)C(F)(F)F)c2c1CCC2O (stereo not drawn) [Compound 609] | > 1000 nM | 50 to 249 nM
51 | O[C@H]1c2c(C(F)(F)F)ccc(OCCCF)c2[C@H](F)C1(F)F [Compound 701] | > 1000 nM | 50 to 249 nM
52 | N#Cc1cc(F)cc(Oc2ccc(S(=O)(=O)C(F)(F)F)c3c2CC(F)(F)[C@H]3NCCO)c1 [Compound 291] | > 1000 nM | > 1000 nM
53 | O=S(=O)(c1ccc(OCc2ccccc2)c2c1[C@H](O)C(F)(F)C2)C(F)F [Compound 780] | > 1000 nM | > 1000 nM
54 | N#CN=S1(=O)c2ccc(Oc3cc(F)cc(F)c3)c(Cl)c2[C@@H](O)C1(F)F (stereo partly drawn) [Compound 412] | > 1000 nM | 50 to 249 nM

From patent US10278942B2 (PELOTON THERAPEUTICS, INC., priority 2015, dated 2019)
